Reference: patent publication US8623862B2, “Derivatives of N-[(1H-pyrazol-1-yl)aryl]-1H-indole or 1H-indazole-3-carboxamide, preparation thereof and applications thereof in therapeutics” (Sanofi, priority 2011, dated 2014)
Where a name gives a salt, the structure may show the parent alone.

What follows are molecules tested on platelet aggregation (assay: Inhibition of platelet aggregation in vitro (rat blood)). Conditions: 0.1 h; rat platelet-rich plasma, ADP-induced aggregation, area under the curve of absorbance for 6 minutes; read-out: Inhibition of platelet aggregation in vitro (rat blood).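 Note: aggregation induced by ADP added as 4 µL of a 250 µM solution.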
Assay type: cell-based
Procedure: The measurements of platelet aggregation are performed at 37° C. in glass tubes (Chrono-Log—Kordia aggregometer).
Inhibition of Platelet Aggregation In Vitro (Rat Blood)
The blood is taken from male rats of the Sprague-Dawley strain, weighing 250-300 g.
The platelet-rich plasma (PRP) is obtained by centrifugation of the blood at 300 g for 5 minutes, and the measurements of platelet aggregation are performed as described above.
The results are calculated using the area under the curve of absorbance measured for 6 minutes, and expressed as percentage inhibition.
`CCCC(=O)c1cnn(-c2ccc(NC(=O)c3cn(CC(=O)N4CCNC(C)C4)c4ccc(C)cc34)cc2)c1C` (stereo not drawn) [Compound 242, N-[4-(4-Butyryl-5-methyl-1H-pyrazol-1-yl)phenyl]-5-methyl-1-[2-(3-methylpiperazin-1-yl)-2-oxoethyl]-1H-indole-3-carboxamide hydrochloride] was tested, and the IC50 was 510 nM.

Same assay, conditions: rat blood, in vitro; read-out: Inhibition of platelet aggregation in vitro (rat blood);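 note: aggregation induced by ADP added as 4 µL of a 250 µM solution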
`CCCC(=O)c1cnn(-c2ccc(NC(=O)c3cn(CC(=O)N4CCN(Cc5cccs5)CC4)c4ccc(C)cc34)cc2)c1C` [Compound 164] was tested, and the IC50 was 1010 nM. `CCCC(=O)c1cnn(-c2ccc(NC(=O)c3cn(CC(=O)N4CCN(Cc5ccc(F)cc5)CC4)c4ccc(Cl)cc34)cc2)c1C` [Compound 165] gave an IC50 of 310 nM. In the case of `CCCC(=O)c1cnn(-c2ccc(NC(=O)c3cn(CC(=O)N4CCN(Cc5ccc(Cl)cc5)CC4)c4ccc(Cl)cc34)cc2)c1C` [Compound 167], the IC50 is reported as 470 nM. Molecule `CCCC(=O)c1cnn(-c2ccc(NC(=O)c3cn(CC(=O)N4CCN(Cc5ccccc5OC)CC4)c4ccc(Cl)cc34)cc2)c1C` [Compound 168] has an IC50 of 370 nM. `CCCC(=O)c1cnn(-c2ccc(NC(=O)c3cn(CC(=O)N(C)C4CCS(=O)(=O)C4)c4ccc(Cl)cc34)cc2)c1C` (stereo not drawn) [Compound 169] showed an IC50 of 400 nM. Molecule `CCCC(=O)c1cnn(-c2ccc(NC(=O)c3cn(CC(=O)N4CC(O)CC4C(=O)NC4CCC4)c4ccc(Cl)cc34)cc2)c1C` (stereo not drawn) [Compound 171] has an IC50 of 570 nM. `CCCC(=O)c1cnn(-c2ccc(NC(=O)c3cn(CC(=O)N4CCn5ccnc5C4)c4ccc(Cl)cc34)cc2)c1C` [Compound 172] showed an IC50 of 330 nM. `CCCC(=O)c1cnn(-c2ccc(NC(=O)c3cn(CC(=O)N4CCc5[nH]ncc5C4)c4ccc(Cl)cc34)cc2)c1C` [Compound 173] was tested, and the IC50 was 170 nM. `CCCC(=O)c1cnn(-c2ccc(NC(=O)c3cn(CC(=O)N4Cc5cnn(C)c5C4)c4ccc(Cl)cc34)cc2)c1C` [Compound 174] was tested, and the IC50 was 490 nM. In the case of `CCCC(=O)c1cnn(-c2ccc(NC(=O)c3cn(CC(=O)N4Cc5c[nH]nc5C4)c4ccc(Cl)cc34)cc2)c1C` [Compound 175], the IC50 is reported as 290 nM. Work on `CCCC(=O)c1cnn(-c2ccc(NC(=O)c3cn(CC(=O)N4CC(O)C4)c4ccc(Cl)cc34)cc2)c1C` [Compound 176] yielded an IC50 of 390 nM. For `CCCC(=O)c1cnn(-c2ccc(NC(=O)c3cn(CC(=O)N(C)C)c4ccc(N(C)C)cc34)cc2)c1C` [Compound 178], the IC50 was 500 nM. `CCCC(=O)c1cnn(-c2ccc(NC(=O)c3cn(CC(=O)N4CCN(C(C)(C)CO)CC4)c4ccc(Cl)cc34)cc2)c1C` [Compound 181] was tested, and the IC50 was 180 nM. `CCCC(=O)c1cnn(-c2ccc(NC(=O)c3cn(CC(=O)N4CCn5cnnc5C4)c4ccc(Cl)cc34)cc2)c1C` [Compound 182] showed an IC50 of 270 nM. For `CCCC(=O)c1cnn(-c2ccc(NC(=O)c3cn(CC(=O)N4CCN5C(=O)CCC5C4)c4ccc(Cl)cc34)cc2)c1C` (stereo not drawn) [Compound 183], the IC50 was 230 nM. Molecule `CCCC(=O)c1cnn(-c2ccc(NC(=O)c3cn(CC(=O)N4CCN(C)C(=O)C4)c4ccc(Cl)cc34)cc2)c1C` [Compound 184] has an IC50 of 170 nM. `CCCC(=O)c1cnn(-c2ccc(NC(=O)c3cn(CC(=O)N4CCN(C)C(C)(C)C4)c4ccc(Cl)cc34)cc2)c1C` [Compound 186] gave an IC50 of 250 nM. `CCCC(=O)c1cnn(-c2ccc(NC(=O)c3cn(CC(=O)N4Cc5cccnc5C4)c4ccc(Cl)cc34)cc2)c1C` [Compound 187] gave an IC50 of 610 nM. `CCCC(=O)c1cnn(-c2ccc(NC(=O)c3cn(CC(=O)N4CC[C@@H](C(=O)NC5CC5)C4)c4ccc(Cl)cc34)cc2)c1C` [Compound 188] was tested, and the IC50 was 550 nM. Molecule `CCCC(=O)c1cnn(-c2ccc(NC(=O)c3cn(CC(=O)N4CCC(F)(F)C4)c4ccc(Cl)cc34)cc2)c1C` [Compound 189] has an IC50 of 410 nM. With `CCCC(=O)c1cnn(-c2ccc(NC(=O)c3cn(CC(=O)N4CCN(C5COC5)CC4)c4ccc(Cl)cc34)cc2)c1C` [Compound 191] the IC50 was 160 nM. Molecule `CCCC(=O)c1cnn(-c2ccc(NC(=O)c3cn(CC(=O)N4CC5CCC(C4)N5C)c4ccc(Cl)cc34)cc2)c1C` [Compound 192] has an IC50 of 270 nM. `CCCC(=O)c1cnn(-c2ccc(NC(=O)c3cn(CC(=O)N4CCN(C)C(CCOC)C4)c4ccc(Cl)cc34)cc2)c1C` (stereo not drawn) [Compound 196] showed an IC50 of 230 nM. In the case of `CCCC(=O)c1cnn(-c2ccc(NC(=O)c3cn(CC(=O)N4CCN(CCNC(C)=O)CC4)c4ccc(Cl)cc34)cc2)c1C` [Compound 197], the IC50 is reported as 250 nM. With `CCCC(=O)c1cnn(-c2ccc(NC(=O)c3cn(CC(=O)N4CCN(CC(=O)N5CCCC5)CC4)c4ccc(Cl)cc34)cc2)c1C` [Compound 198] the IC50 was 410 nM. With `CCCC(=O)c1cnn(-c2ccc(NC(=O)c3cn(CC(=O)N4CCN(CC(N)=O)CC4)c4ccc(Cl)cc34)cc2)c1C` [Compound 199] the IC50 was 270 nM. Work on `CCCC(=O)c1cnn(-c2ccc(NC(=O)c3cn(CC(=O)N(C)CCOC)c4ccc(Cl)cc34)cc2)c1C` [Compound 200] yielded an IC50 of 480 nM. For `CCCC(=O)c1cnn(-c2ccc(NC(=O)c3cn(CC(=O)N4CCN(C5CCC5)CC4)c4ccc(Cl)cc34)cc2)c1C` [Compound 201], the IC50 was 650 nM. Work on `CCCC(=O)c1cnn(-c2ccc(NC(=O)c3cn(CC(=O)N4CCN(C)CC4)c4ccc(C(F)(F)F)cc34)cc2)c1C` [Compound 203] yielded an IC50 of 360 nM. For `CCCC(=O)c1cnn(-c2ccc(NC(=O)c3cn(CC(=O)N4CCC(OCCOC)C4)c4ccc(Cl)cc34)cc2)c1C` (stereo not drawn) [Compound 206], the IC50 was 830 nM. Work on `CCCC(=O)c1cnn(-c2ccc(NC(=O)c3cn(CC(=O)N4CCC(OCCO)C4)c4ccc(Cl)cc34)cc2)c1C` (stereo not drawn) [Compound 208] yielded an IC50 of 370 nM. Work on `CCCC(=O)c1cnn(-c2ccc(NC(=O)c3cn(CC(=O)N4CCN(CC(O)C(F)(F)F)CC4)c4ccc(Cl)cc34)cc2)c1C` (stereo not drawn) [Compound 209] yielded an IC50 of 420 nM. Work on `CCCC(=O)c1cnn(-c2ccc(NC(=O)c3cn(CC(=O)N4CCN(CCN(C)C(C)=O)CC4)c4ccc(Cl)cc34)cc2)c1C` [Compound 211] yielded an IC50 of 280 nM. Molecule `CCCC(=O)c1cnn(-c2ccc(NC(=O)c3cn(CC(=O)N4CC5CC4CN5C4CCC4)c4ccc(Cl)cc34)cc2)c1C` (stereo not drawn) [Compound 214] has an IC50 of 660 nM. Work on `CC(=O)c1cnn(-c2ccc(NC(=O)c3cn(CC(=O)N4CCN(C)CC4)c4ccc(Cl)cc34)cc2)c1C` [Compound 216] yielded an IC50 of 730 nM. `CCC(=O)c1cnn(-c2ccc(NC(=O)c3cn(CC(=O)N4CCN(C)CC4)c4ccc(Cl)cc34)cc2)c1C` [Compound 217] was tested, and the IC50 was 600 nM. With `CCOC(=O)c1cnn(-c2ccc(NC(=O)c3cn(CC(=O)N4CCN(C)CC4)c4ccc(Cl)cc34)cc2)c1C` [Compound 218] the IC50 was 560 nM. With `CCCC(=O)c1cnn(-c2ccc(NC(=O)c3cn(CC(=O)N4CCN(C)CC4)c4ccc(Cl)cc34)c(C(N)=O)c2)c1C` [Compound 220] the IC50 was 220 nM.

Same assay, conditions: rat platelet-rich plasma, ADP-induced aggregation, area under the curve of absorbance for 6 minutes; read-out: Inhibition of platelet aggregation in vitro (rat blood);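 note: aggregation induced by ADP added as 4 µL of a 250 µM solution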
`CCCC(=O)c1cnn(-c2ccc(NC(=O)c3cn(CC(=O)N4CCNCC4)c4ccc(C)cc34)cc2)c1C` [Compound 243] gave an IC50 of 540 nM. `CCCC(=O)c1cnn(-c2ccc(NC(=O)c3cn(CC(=O)N4CCCC(N)C4)c4ccc(C)cc34)cc2)c1C` (stereo not drawn) [Compound 244] gave an IC50 of 960 nM. With `CCCC(=O)c1cnn(-c2ccc(NC(=O)c3cn(CC(=O)NC4CCNC4)c4ccc(C)cc34)cc2)c1C` (stereo not drawn) [Compound 245] the IC50 was 530 nM. Molecule `CCCC(=O)c1cnn(-c2ccc(NC(=O)c3cn(CC(=O)N4CC5CCNC5C4)c4ccc(C)cc34)cc2)c1C` (stereo not drawn) [Compound 246] has an IC50 of 850 nM. `CCCC(=O)c1cnn(-c2ccc(NC(=O)c3cn(CC(=O)N4CC(C)NC(C)C4)c4ccc(C)cc34)cc2)c1C` (stereo not drawn) [Compound 247] was tested, and the IC50 was 260 nM. `CCCC(=O)c1cnn(-c2ccc(NC(=O)c3cn(CC(=O)N4CCC(NC)CC4)c4ccc(C)cc34)cc2)c1C` [Compound 248] showed an IC50 of 320 nM.
